Series [1] can be described thus: Pharmacokinetic evaluation in mice (IV and PO). Format: in vivo, male CD-1 mice. The settings on record: for AUC(0-t) / bioavailability / Cmax / Tmax / clearance / half-life / Vd: male, plasma; for bioavailability: PO 10 mg/kg vs IV 2 mg/kg, read-out: F (bioavailability); for Cmax: read-out: Cmax (peak concentration); for Tmax: read-out: Tmax (time to peak); for clearance: read-out: Cl (plasma clearance); for half-life: read-out: T1/2 (elimination half-life) (converted); for Vd: read-out: Vdss (steady-state apparent volume of distribution); for oral bioavailability (in words): oral administration. Here is the method: Experimental Procedure: 0.4 mg/mL clear solution of the test compounds in a specific menstruum was injected intravenously into male CD-1 nude mice (overnight fasting, aged 7-9 weeks) via caudal vein at a dose of 2 mg/kg. About 30 μL of blood was collected from jugular or caudal vein at 0.0833, 0.25, 0.5, 1.0, 2.0, 4.0, 8.0 and 24 h after intravenous administration. […] About 30 μL of blood was collected from jugular or caudal vein of the male CD-1 mice at 0.0833, 0.25, 0.5, 1.0, 2.0, 4.0, 8.0 and 24 h after oral administration. The blood samples were added into anticoagulant tubes containing EDTA-K2, and then centrifuged to separate the plasma. LC-MS/MS method was used to determine the drug concentration in blood, and WinNonlin™ Version 6.3 (Pharsight, Mountain View, CA) pharmacokinetic software was used to calculate the relevant pharmacokinetic parameters by non-compartment model linear logarithmic trapezoidal method.
Note: Plasma clearance (Cl) mL/min/kg, steady-state apparent volume of distribution (Vdss) L/kg, elimination half-life (T1/2) and area under the plasma concentration curve from point 0 to the last measurable time point (AUC0-last), bioavailability F %, peak concentration (Cmax), time to peak Tmax

For series [2], the system named is SNU-16 transplantation tumor model. Description: In vivo pharmacodynamic evaluation, SNU-16 gastric cancer transplantation tumor model. On the set-up: species or system nude mice. The settings on record: SNU-16 transplantation model. Here is the method:
Method of establishing SNU-16 gastric cancer model: SNU-16 cells in logarithmic growth phase were collected, and the cells were resuspended in 50% PBS (pH 7.4, 0.01 M) and 50% Matrigel after cell counting. The cell concentration was adjusted to 4×10^7 cells/mL; the cells were placed in an ice box, and the cell suspension was aspirated with a 1-mL syringe and subcutaneously injected into nude mice via the anterior right armpit. Each animal was inoculated with 200 μL (8×10^6 cells/each) to establish the SNU-16 transplantation tumor model. The animals were observed regularly, and the tumor diameters were measured using an electronic vernier caliper. The data were inputted an Excel spreadsheet to calculate the tumor volume and monitor the tumor growth. When the tumor volume reached 100-300 mm^3, mice bearing similar tumor volume and in good health condition were selected. Randomization method was used for animal grouping; the number of animals in each group was n=7, and the average tumor volume of each group was about 145 mm^3. After the experiment started, tumor diameters were measured and tumor volume was calculated twice a week, and the weight of animals was weighed and recorded.
Tumor growth inhibition (TGI) was used to analyze the tumor growth trend and evaluated by tumor volume over time. The long axis (L) and short axis (W) of the subcutaneous tumors were measured twice a week by a caliper, and the tumor volume (TV) was calculated by the formula ((L×W^2)/2).
The experimental data were calculated and statistically processed by SPSS 19.0. Unless otherwise stated, data were expressed as mean f standard error (Mean±SE), and comparisons between two groups were analyzed by t-test. p<0.05 indicates a significant difference. The solvent 30% PEG400 (containing 70% deionized water, v/v) was used as negative control.

The target of another series is T1, human FGFR1 (Homo sapiens, UniProt P11362).
T1 construct: purchased Invitrogen PV3146
Description: 33P isotope-labeled kinase activity test, FGFR1. Format: biochemical. The settings on record: ATP 5 μM. Here is the method:
(§1) The inhibitory activities of the tested compounds on human FGFR1, FGFR4, and c-Met were evaluated by the IC50 values measured using ^33P isotope-labeled kinase activity test (Reaction Biology Corp).
(§2) Buffer condition: 20 mM Hepes (pH 7.5), 10 mM MgCl2, 1 mM EGTA, 0.02% Brij35, 0.02 mg/mL BSA, 0.1 mM Na3VO4, 2 mM DTT, 1% DMSO.
Test procedure: The test compounds were dissolved in DMSO at room temperature and formulated to be 10 mM solutions for later use. The substrates were dissolved in freshly prepared buffer, and kinases to be tested were added and mixed well. The test compounds dissolved in DMSO were added to the above mixed reaction solutions by acoustic technique (Echo 550). […] After incubation for 15 min, ^33P-ATP (activity 0.01 μCi/μL, corresponding concentrations are listed in Table 1) was added to start the reaction. Supplier item number, batch number, as well as the concentration information in the reaction solution of FGFR1, FGFR4, c-Met and substrates thereof are listed in Table 1. […] The kinase activity data are expressed by comparison between the kinase activity in the test compound group and the kinase activity in the blank group (containing DMSO only). IC50 values were obtained by curve fitting with Prism4 software (GraphPad).

A further series deals with T2, human FGFR4 (Homo sapiens, UniProt P22455).
T2 construct: purchased Invitrogen P3054
Kind of series: 33P isotope-labeled kinase activity test, FGFR4. Format: biochemical. The settings on record: ATP 100 μM. As for the experimental part:
as §1, §2
(§3) Test procedure: The test compounds were dissolved in DMSO at room temperature and formulated to be 10 mM solutions for later use. The substrates were dissolved in freshly prepared buffer, and kinases to be tested were added and mixed well. The test compounds dissolved in DMSO were added to the above mixed reaction solutions by acoustic technique (Echo 550). The concentration of the compound in reaction solution was 1 μM, […], 3.91 nM, 0.977 nM, 0.244 nM, 0.061 nM, 0.0153 nM, 0.00381 nM or 10 μM, 2.50 μM, 0.62 μM, 0.156 μM, 39.1 nM, 9.8 nM, 2.4 nM, 0.61 nM, 0.15 nM, 0.038 nM. After incubation for 15 min, ^33P-ATP (activity 0.01 μCi/μL, corresponding concentrations are listed in Table 1) was added to start the reaction. Supplier item number, batch number, as well as the concentration information in the reaction solution of FGFR1, FGFR4, c-Met and substrates thereof are listed in Table 1. […] The kinase activity data are expressed by comparison between the kinase activity in the test compound group and the kinase activity in the blank group (containing DMSO only). IC50 values were obtained by curve fitting with Prism4 software (GraphPad).

The next series has as its target T3, human c-Met (Homo sapiens, UniProt P08581).
T3 construct: purchased Invitrogen PV3143
Kind of series: 33P isotope-labeled kinase activity test, c-Met. Format: biochemical. The settings on record: ATP 10 μM. As for the experimental part: as §1, §2, §3

Counter-ions that a name gives are not always drawn.

T1 sequence (P11362 22-822): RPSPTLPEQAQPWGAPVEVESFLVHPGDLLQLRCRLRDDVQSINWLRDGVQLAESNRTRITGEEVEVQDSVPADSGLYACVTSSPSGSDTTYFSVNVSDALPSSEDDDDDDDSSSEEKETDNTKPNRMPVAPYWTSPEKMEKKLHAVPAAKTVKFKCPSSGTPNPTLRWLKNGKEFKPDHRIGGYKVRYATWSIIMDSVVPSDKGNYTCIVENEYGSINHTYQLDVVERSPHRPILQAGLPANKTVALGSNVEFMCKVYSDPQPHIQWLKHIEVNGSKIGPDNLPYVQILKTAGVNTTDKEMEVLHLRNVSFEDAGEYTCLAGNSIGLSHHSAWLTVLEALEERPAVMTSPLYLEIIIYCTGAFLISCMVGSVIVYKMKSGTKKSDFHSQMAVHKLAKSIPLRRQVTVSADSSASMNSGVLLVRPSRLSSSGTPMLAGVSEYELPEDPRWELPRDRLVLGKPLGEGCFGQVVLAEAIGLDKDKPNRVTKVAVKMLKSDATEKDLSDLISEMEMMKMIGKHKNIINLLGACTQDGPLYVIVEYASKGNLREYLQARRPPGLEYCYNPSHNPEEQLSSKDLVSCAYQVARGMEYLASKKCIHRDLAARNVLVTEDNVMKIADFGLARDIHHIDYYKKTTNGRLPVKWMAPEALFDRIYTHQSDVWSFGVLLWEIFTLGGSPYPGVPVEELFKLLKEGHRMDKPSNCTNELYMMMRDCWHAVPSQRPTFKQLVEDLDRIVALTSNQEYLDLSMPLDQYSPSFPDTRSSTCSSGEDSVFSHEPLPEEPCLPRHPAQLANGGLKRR
T2 sequence (P22455 22-802): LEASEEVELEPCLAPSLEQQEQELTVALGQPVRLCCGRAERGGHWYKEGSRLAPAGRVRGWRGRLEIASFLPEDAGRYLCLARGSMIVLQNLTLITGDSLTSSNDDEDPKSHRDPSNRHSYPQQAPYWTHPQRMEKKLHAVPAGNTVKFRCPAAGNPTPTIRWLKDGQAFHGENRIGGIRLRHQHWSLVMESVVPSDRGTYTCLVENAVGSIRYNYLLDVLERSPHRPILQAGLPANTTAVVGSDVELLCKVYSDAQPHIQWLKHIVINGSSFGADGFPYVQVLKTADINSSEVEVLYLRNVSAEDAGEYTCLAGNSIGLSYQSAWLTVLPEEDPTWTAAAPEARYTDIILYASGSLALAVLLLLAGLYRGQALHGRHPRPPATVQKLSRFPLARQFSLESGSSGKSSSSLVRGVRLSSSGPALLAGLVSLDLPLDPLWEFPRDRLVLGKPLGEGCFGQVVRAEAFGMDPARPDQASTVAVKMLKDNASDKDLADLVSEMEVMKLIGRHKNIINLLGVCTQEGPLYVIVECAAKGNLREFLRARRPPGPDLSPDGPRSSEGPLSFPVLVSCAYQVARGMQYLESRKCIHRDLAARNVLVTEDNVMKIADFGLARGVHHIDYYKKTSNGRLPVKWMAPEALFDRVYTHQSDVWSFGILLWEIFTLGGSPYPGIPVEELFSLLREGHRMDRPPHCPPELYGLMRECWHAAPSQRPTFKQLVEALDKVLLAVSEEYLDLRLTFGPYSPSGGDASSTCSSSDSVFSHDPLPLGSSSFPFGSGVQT
T3 sequence (P08581 25-1390): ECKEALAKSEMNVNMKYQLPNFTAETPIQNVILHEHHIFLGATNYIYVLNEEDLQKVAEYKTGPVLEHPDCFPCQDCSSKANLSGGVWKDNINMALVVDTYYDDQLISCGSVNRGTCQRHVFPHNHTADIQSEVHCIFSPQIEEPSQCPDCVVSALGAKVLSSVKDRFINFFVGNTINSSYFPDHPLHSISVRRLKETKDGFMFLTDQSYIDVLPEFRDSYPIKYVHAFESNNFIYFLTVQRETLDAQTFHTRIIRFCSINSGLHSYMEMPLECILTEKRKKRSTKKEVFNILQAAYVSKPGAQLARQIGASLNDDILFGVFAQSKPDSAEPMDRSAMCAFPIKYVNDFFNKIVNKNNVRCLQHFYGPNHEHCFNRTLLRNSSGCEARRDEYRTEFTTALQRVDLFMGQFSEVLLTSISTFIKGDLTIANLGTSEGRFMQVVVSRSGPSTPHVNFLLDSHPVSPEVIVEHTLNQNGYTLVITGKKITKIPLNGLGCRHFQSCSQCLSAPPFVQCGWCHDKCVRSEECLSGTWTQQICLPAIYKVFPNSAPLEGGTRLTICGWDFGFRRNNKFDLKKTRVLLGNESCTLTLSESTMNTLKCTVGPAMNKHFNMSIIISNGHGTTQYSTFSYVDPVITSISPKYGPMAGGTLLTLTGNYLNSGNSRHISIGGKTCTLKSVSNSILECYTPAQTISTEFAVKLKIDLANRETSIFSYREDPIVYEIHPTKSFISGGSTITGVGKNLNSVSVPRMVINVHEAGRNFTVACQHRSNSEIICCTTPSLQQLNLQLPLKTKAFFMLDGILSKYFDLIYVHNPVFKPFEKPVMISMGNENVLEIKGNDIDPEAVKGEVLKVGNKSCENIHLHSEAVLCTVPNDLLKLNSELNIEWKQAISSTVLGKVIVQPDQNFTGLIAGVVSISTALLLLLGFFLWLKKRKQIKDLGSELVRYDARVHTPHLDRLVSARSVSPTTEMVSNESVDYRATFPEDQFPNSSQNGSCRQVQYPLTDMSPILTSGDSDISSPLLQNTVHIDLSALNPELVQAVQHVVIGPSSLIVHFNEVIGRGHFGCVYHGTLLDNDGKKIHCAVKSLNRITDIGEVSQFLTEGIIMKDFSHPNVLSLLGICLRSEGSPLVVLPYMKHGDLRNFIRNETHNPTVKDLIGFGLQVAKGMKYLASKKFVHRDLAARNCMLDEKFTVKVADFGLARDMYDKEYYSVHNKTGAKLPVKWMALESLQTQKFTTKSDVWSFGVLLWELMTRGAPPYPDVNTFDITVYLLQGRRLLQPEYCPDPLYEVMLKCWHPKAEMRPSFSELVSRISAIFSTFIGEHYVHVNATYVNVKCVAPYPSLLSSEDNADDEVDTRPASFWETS

Turning to `COc1cc(OC)c(F)c(Cc2c[nH]c3ncc(-c4cnn(CCO)c4)cc23)c1F` [Embodiment 46], in series [1] (CD-1, mouse, PO 10 mg/kg), the AUC(0-t) was 16.6 µM·h, the Cmax came out at 5040 nM and the Tmax amounted to 1 h. In addition, the bioavailability in series [1] (CD-1, mouse) turned out to be 86.6%. Besides, in series [1] (CD-1 nude, mouse, IV 2 mg/kg), the AUC(0-t) amounted to 3.79 µM·h, the clearance was 21.2 mL/min/kg, the half-life was 66 min and the Vd was found to be 1.7 L/kg. For the same molecule, the “oral bioavailability (in words)” value in series [1] is listed as “high oral bioavailability”. Further, the “TGI % (the last administration on the 21th day)” value (shortened to “TGI %”) in series [2] (5 mg/KG BID) was found to be 98%. Moreover, the “TGI %” value in series [2] (10 mg/KG QD) is reported as 80%.

In turn, `COc1nc(OC)c(F)c(Cc2c[nH]c3ncc(-c4cnn(CCO)c4)cc23)c1F` [Embodiment 48] gave an IC50 against human FGFR1 of 0.3 nM. Further, on human FGFR4, the midpoint of inhibition, the IC50, lay at 1.7 nM. The molecule also gave an IC50 against human c-Met of 6.3 nM. Further, in series [1] (CD-1, mouse, PO 10 mg/kg), the exposure AUC(0-t) came to 3.23 µM·h, the Cmax came to 877 nM and the Tmax stood at 1.3 h. The bioavailability in series [1] (CD-1, mouse) is 21.5%. In series [1] (CD-1 nude, mouse, IV 2 mg/kg), the exposure AUC(0-t) came out at 3.15 µM·h, the clearance worked out at 25.3 mL/min/kg, the half-life was 66 min and the Vd is 2.1 L/kg. The “oral bioavailability (in words)” value in series [1] is given as “moderate bioavailability”. Moreover, the “TGI %” value in series [2] (10 mg/KG QD) was 77%.

As for `CCN1CCC(C#N)(c2ccc(-c3cnc4[nH]cc(Cc5c(F)c(OC)cc(OC)c5F)c4c3)cc2)CC1` [Trifluoroacetate salt of embodiment 58], the IC50 on human FGFR1 came to 1.2 nM; on human FGFR4 it was 23.5 nM; at human c-Met it was 162 nM.

On to `COc1cc(OC)c(F)c(Cc2c[nH]c3ncc(-c4cccc(C5(C#N)CCNCC5)c4)cc23)c1F` [Trifluoroacetate salt of embodiment 59], for which the concentration for half-maximal inhibition (IC50) against human FGFR1 worked out at 0.8 nM; at human FGFR4, 14.7 nM; against human c-Met, 127 nM.

Turning to `CCN1CCC(C#N)(c2cccc(-c3cnc4[nH]cc(Cc5c(F)c(OC)cc(OC)c5F)c4c3)c2)CC1` [Trifluoroacetate salt of embodiment 60], the half-inhibitory concentration (IC50) at human FGFR1 amounted to 2.2 nM; against human FGFR4 it was 33.4 nM; on human c-Met, 320 nM.

In the case of `COc1cc(OC)c(F)c(Cc2c[nH]c3ncc(-c4cncc(C5(C#N)CCNCC5)c4)cc23)c1F` [Trifluoroacetate salt of embodiment 61], the IC50 was 0.7 nM against human FGFR1, 4.5 nM on human FGFR4 and 243 nM on human c-Met.

As for `COc1cc(OC)c(F)c(Cc2c[nH]c3ncc(-c4cnn(CC(C)(C)O)c4)cc23)c1F` [Trifluoroacetate salt of embodiment 66], the IC50 was determined as 0.5 nM against human FGFR1, 9 nM against human FGFR4 and 28 nM against human c-Met.

For the origin of these results see patent US12312347B2, “Azaindole derivative and use thereof as FGFR and C-Met inhibitor” (Wuxi Life Fountain Biotech Co., Ltd, priority 2018, dated 2025).
